Here are results for 5 molecules from patent US20190142722A1, “METHODS AND COMPOSITIONS FOR PROMOTING OR INDUCING HAIR GROWTH” (THE TRUSTEES OF COLUMBIA UNIVERSITY IN THE CITY OF NEW YORK, priority 2017, published 2019).

Data set [1] concerns macrophages. Put plainly: Macrophage inhibition during telogen to initiate anagen. In kind it is in vivo, mouse. Particulars: mid-telogen, C57BL/6 mice. How it is done:
(§1) Neutralizing antibodies to OSMR (7.5 μg) were injected intradermally into the dorsal telogen skin daily for 14 days from P60 (mid-telogen). Neutralizing antibodies to CSFL1R (AFS98) and F4/80 (CI:A3-1) were diluted in sterile PBS, and 500 μg was injected intradermally into the dorsal telogen skin for 14 consecutive days. Neutralizing antibodies to CD25 (PC61.5) were injected intraperitoneally every other day (250 μg/dose×3) from P53, prior to anagen induction at P60.
(§2) For in vivo macrophage inhibition, the small molecule Pexidartinib/PLX3397 was administered topically (2 mM in DMSO) or subcutaneously (1 mM in corn oil) for 5 consecutive days from P60. For OSM knock-down, peritoneal macrophages were harvested from adult C57BL/6 mice and cultured in DMEM/F12/15% FBS/0.3 mMCa2+ the presence of […] M-CSF to polarize them to an “M2-like” phenotype, similar to trichophages. Lentiviral precipitate containing scrambled or OSM shRNA added to the media in the presence of 8 μg/ml protamine sulphate, and the cells were centrifuged at 3000 rpm for 1 h at 32° C. to enhance transduction. Successful transductions were enriched with puromycin (1 μg/ml) selection, counted and used for the patch assay.
Three independent methods of macrophage inhibition during telogen were used to initiate anagen in C57BL/6 mice.

Data set [2] concerns T regulatory cells / macrophages. Kind of data set: Anagen initiation after T regulatory cell depletion or macrophage targeting. The format is in vivo, mouse. As to the method:
as §1

The subject of data set [3] is Hair follicle stem cells (HFSCs). Put plainly: Western blot of cultured HFSCs stimulated with OSM, with or without JAK inhibitor pre-treatment. The format is cell-based, mouse. As to the method: (§3) HFSCs (ITGA6+ Sca-1−) cells were collected from flow cytometry and plated onto 6-well plates, and maintained with Cnt-07S keratinocyte media. In vitro stimulation experiments were carried out when keratinocytes were 80-90% confluent. Confluent HFSCs were pre-treated with JAK inhibitors (tofacitinib, ruxolitinib or PF-06651600, all at 10 μM) for 20 min, and murine OSM was added for a final concentration of 10 ng/ml or 20 ng/ml for 15 min. For clonogenic assays, HFSCs were plated at a density of 10,000 cells per well and maintained for 2 weeks. For analysis of clonogenicity, plates were washed with PBS, and keratinocytes were fixed in situ with 4% paraformaldehyde (PFA) for 1 hour, followed by staining with 1% (wt/vol) Rhodamine B (Sigma-Aldrich) for 1 h. Clones were quantified using a backlight.
Cells were lyzed in RIPA buffer in the presence of protease and phosphatase inhibitors on ice, and protein lysates were resuspended in Laemmli sample buffer. Whole-cell lysates were fractionated on TGX Stain-free protein gels and transferred to a PVDF membrane, blocked with 5% non-fat milk in TBST, and incubated with antibodies listed in the Key Resources Table (all 1:1000, diluted in TBST/3% BSA) overnight. Membranes were washed the following day and incubated with HRP-conjugated secondary antibodies (1:5000), washed, and developed with Luminata Forte Western HRP Substrate and visualized on the BioRAD ChemiDOC MP Imaging system. GAPDH or (3-actin were used as loading controls, depending on the mass of the proteins of interest.
Hair follicle stem cells (HFSCs) (ITGA6+ Sca-1− population isolated from telogen skin), were cultured and stimulated with OSM at 10 ng/ml and 20 ng/ml. […] (FIG. 1C).
On the technique in general: A western blot detects proteins with antibodies after separation by electrophoresis.

Data set [4] relates to telogen skin. Kind of data set: Anagen induction by topical JAK inhibitor in mouse telogen skin. In kind it is in vivo. The following applies: topical to dorsal skin for 5 days at P60 (mid-telogen), C57BL/6 mice. The source says:
(§4) Mice were carefully shaved with clippers during telogen to reveal the pink skin typical of the telogen phase 1 week prior to the experiment. Mice that were inadvertently wounded were not used. Anagen was induced by topical application of 2% Ruxolitinib in DMSO to the right side of the dorsal skin daily for 5 consecutive days. The hair cycle was observed and documented with standardized photographs taken prior to the first treatment, and then twice weekly thereafter. Murine IL-6, LIF or OSM (100 ng/ml, 50 ng/ml, 125 ng/ml respectively) were dissolved in sterile PBS and 100 μl was injected into the center of the field of application daily for 10 consecutive days, beginning with the first application of Ruxolitinib.
(§5) OSM and other gp130 cytokines (IL-6 and Leukemia Inhibitory Factor, LIF) were tested for their ability to inhibit anagen resulting from topical JAK inhibitors, which resembles spontaneous anagen. C57BL/6 mice were treated on the right dorsal skin topically with Ruxolitinib 2% in DMSO at P60 (mid-telogen) for 5 days, recapitulating previous experiments in Harel, S., et al., Pharmacologic inhibition of JAK-STAT signaling promotes hair growth. Sci Adv, 2015. 1(9): p. e1500973. […] From P60, mice were also injected with control PBS or a gp130 cytokine (IL-6, LIF or OSM) into the middle of the field of topical application for 10 days. […] (FIG. 1A).

The subject of data set [5] is alopecia areata. The following applies: patients, literature (Mackay-Wiggan 2016; Kennedy Crispin 2016); cited from earlier work.
For data set [6], the system named is Neonatal keratinocytes and dermal cells. Kind of data set: Hair reconstitution (patch) assay. The format is in vivo. The following applies: tofacitinib 400 nM or OSM 25 ng/ml added to cell slurry injected intradermally into nude mouse. As to the method:
as §2
Neonatal (P0 or P1) mice were sacrificed and skins were harvested for the patch assay. Neonatal skins were enzymatically separated with 0.25% trypsin, and the dermis was further digested with 0.3% collagenase/DNase. Neonatal keratinocytes and dermal cells were counted recombined in a 1:1 ratio ([…] each) and resuspended in 100 μl of media (1:1 mix of DMEM/10% FBS and CnT-0.7S) and injected intradermally into the dorsal skin of a nude mouse. For pharmacological/cytokine treatment, tofacitinib (400 nM) and/or OSM (25 ng/ml) was added. […]

Data set [7] relates to (ITGA6+ Sca-1−) HFSCs. Kind of data set: Colony-forming assay with isolated HFSCs. In kind it is cell-based, mouse. Particulars: for colony formation of HFSCs: OSM 10 ng/ml or Tofacitinib 100 nM alone. How it is done:
as §3
Colony-forming assays with isolated (ITGA6+ Sca-1−) HFSCs were performed in the presence of OSM (10 ng/ml), Tofacitinib (100 nM) or both. […] (FIG. 1E).

Data set [8] concerns telogen skin. Kind of data set: Inhibition of topical JAK inhibitor-induced anagen by intradermal gp130 cytokines. In kind it is in vivo, mouse. Particulars: cytokine injected intradermally into middle of field of topical application for 10 days from P60, C57BL/6 mice.
From the text: as §4, §5

For data set [9], the system named is hair follicles. Particulars: cited from earlier work.
[10] abbreviates: pre-treatment 10 μM for 20 min before OSM.
[11] abbreviates: OSM at 10 ng/ml and 20 ng/ml, cultured HFSCs.

Regarding `FC(F)(F)c1ccc(CNc2ccc(Cc3c[nH]c4ncc(Cl)cc34)cn2)cn1` [Pexidartinib, 5-[(5-chloro-1H-pyrrolo[2,3-b]pyridin-3-yl)methyl]-N-[[6-(trifluoromethyl)pyridin-3-yl]methyl]pyridin-2-amine], the anagen initiation result in data set [1] (subcutaneous (1 mM in corn oil) for 5 days) and in data set [1] (topical (2 mM in DMSO) for 5 days) was “successful at initiating anagen” each time. Also, the “anagen initiation compared with wild-type mice treated with a JAK-inhibitor” value in data set [2] is “initiated anagen in the same manner as wild-type mice treated with a JAK-inhibitor”.

For `C=CC(=O)N1C[C@H](Nc2ncnc3[nH]ccc23)CC[C@@H]1C` [PF-06651600], in data set [3] (setting [10]), the “effect on JAK phosphorylation in OSM-stimulated HFSCs (Western blot)” value is “did not have an effect on JAK1/JAK2/Tyk2 or STAT3 phosphorylation” and the “effect on pSTAT3 / pSTAT5 activation in OSM-stimulated HFSCs (Western blot)” value (“effect on pSTAT3 / pSTAT5 activation” for short) is listed as “without significant inhibition of STAT3 phosphorylation”. The “effect on pSTAT3 / pSTAT5 activation” value in [3] (pre-treatment 10 μM for 20 min before OSM, listed as PF-06651660) was “still inhibited pSTAT5 activation”. In [4], the “anagen induction in telogen skin” value is “sufficient to initiate anagen”.

For `C[C@@H]1CCN(C(=O)CC#N)C[C@@H]1N(C)c1ncnc2[nH]ccc12` [Tofacitinib], the “efficacy in alopecia areata” value in [5] was “efficacious in the treatment of alopecia areata”. Moreover, in data set [3] (setting [10]), the “effect on JAK phosphorylation in OSM-stimulated HFSCs (Western blot)” value is on record as “inhibited phosphorylation of a variety of JAKs”; the “effect on pSTAT3 / pSTAT5 activation” value is “inhibited both pSTAT3 and pSTAT5 activation”. In addition, the “inhibition of OSM-activated pathways by pre-treatment (Western blot)” value in data set [3] (pre-treatment 10 μM for 20 min before OSM, cultured HFSCs) was “inhibited the JAK-STAT and, to a lesser extent, the MAPK-MEK-ERK pathways”. For the same molecule, in [6], the “hair reconstitution in patch assay” value was “enhanced the hair follicles generated in this assay”. For the same molecule, the “colony formation of HFSCs” value in data set [7] is on record as “increased the colony-forming ability of HFSCs, as well as increasing the colony size”. Further, the “rescue of the inhibitory effects of OSM on colony formation” value in data set [7] (Tofacitinib 100 nM together with OSM 10 ng/ml) is listed as “sufficient to rescue the inhibitory effects of OSM”.

B1: IL-6: gp130 cytokine, murine IL-6 (protein, UniProt P08505 25-211, looked up)
Interleukin-6: FPTSQVRRGDFTEDTTPNRPVYTTSQVGGLITHVLWEIVEMRKELCNGNSDCMNNDDALAENNLKLPEIQRNDGCYQTGYNQEICLLKISSGLLEYHSYLEYMKNNLKDNKKDKARVLQRDTETLIHIFNQEVKDLHKIVLPTPISNALLTDKLESQKEWLRTKTIQFILKSLEEFLKVTLRSTRQT
With B1, the “inhibition of anagen resulting from topical Ruxolitinib” value in data set [8] is “OSM was the only member of this class of cytokines that inhibited anagen”. The induction of catagen entry in data set [9] (anagen HFs, literature (Kwack 2012)) is “IL-6 induced catagen in anagen HFs”.

B2: OSM: secreted cytokine of the LIF/OSM family; murine OSM used in tests (protein, UniProt P53347 25-206, looked up)
Oncostatin-M: NRGCSNSSSQLLSQLQNQANLTGNTESLLEPYIRLQNLNTPDLRAACTQHSVAFPSEDTLRQLSKPHFLSTVYTTLDRVLYQLDALRQKFLKTPAFPKLDSARHNILGIRNNVFCMARLLNHSLEIPEPTQTDSGASRSTTTPDVFNTKIGSCGFLWGYHRFMGSVGRVFREWDDGSTRSRR
As to B2, in data set [3] (setting [11]), the “activation of JAK-STAT and MAPK-MEK-ERK pathways (Western blot)” value is “activated JAK-STAT1/3/5 pathways and the MAPK-MEK-ERK pathways in HFSCs in a dose-dependent fashion”; the “effect on PI3K/Akt/mTOR pathway (Western blot)” value is on record as “minimal effect on the PI3K/Akt/mTOR pathway”. Further, in data set [3] (OSM-stimulated cultured HFSCs), the “activation of JAKs, pSTAT3 and pSTAT5 (Western blot)” value is “dose-dependent activation of all four JAKs (JAK1, JAK2, JAK3, Tyk2), as well as pSTAT3 and pSTAT5”. In addition, the “hair reconstitution in patch assay” value in data set [6] is reported as “sufficient to nearly completely inhibit hair reconstitution”. For the same molecule, in data set [7], the “colony formation of HFSCs” value is given as “prevented colonies from forming in vitro”. Further, in [8], the “inhibition of anagen resulting from topical Ruxolitinib” value was “inhibited anagen in the area it was administered”. Further, the effect on anagen result in data set [9] (mouse, literature) is “potent inhibitor of anagen”.
